The numbers were not newly measured in patent EP1982712A1 (priority 2005, dated 2007), which cites them from elsewhere.

For the series the following is noted: for Clearance (route of elimination) / distribution volumes / time to reach the maximum concentration: in vivo; for time to reach the maximum concentration: po.

As for `CCC(C)n1ncn(-c2ccc(N3CCN(c4ccc(OCC5COC(Cn6cncn6)(c6ccc(Cl)cc6Cl)O5)cc4)CC3)cc2)c1=O` (stereo not shown) [itraconazole, Itraconazole], the “Clearance (route of elimination)” value is “cleared mainly through hepatic metabolism”, the distribution volumes entry is given as “about 10.7 l/kg” and the “time to reach the maximum concentration” value is reported as “up to four”. Besides, where the note is “after oral administration”, the bioavailability result is recorded as “about 50%”.

In the case of `OC(Cn1cncn1)(Cn1cncn1)c1ccc(F)cc1F` [fluconazole, Fluconazole], the “Clearance (route of elimination)” value was “eliminated in a higher proportion in urine”, the distribution volumes was 0.7 to 1 L/kg and the “time to reach the maximum concentration” value is given as “two”.
